Results taken from PubChem BioAssay AID1963421 (Molecular Pharmacology Branch, DTP, NCI, 2024).

Test system: 519858-162-T-J1-PDC complex spheroid growth, % test/control
Assay: Anticancer human tumor 519858-162-T-J1-PDC patient-derived colon adenocarcinoma cell line growth inhibition [Asc]
Details: for IC50: curve of first compound; for viability, T/C: stronger effect = lower value; active means viability on the fitted dose curve at most 10% of control; inactive means the rest
How it was run: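 Complex spheroids combining tumor cells with HUVEC endothelial cells and human MSCs, at 37 degrees C, 5% CO2; agents tested alone or combined, half-log dilutions from at or near clinical Cmax, or 10 microM if Cmax unknown.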
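Further: seven day drug exposure begun three days after spheroid seeding.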
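Wherever viability, T/C is given: 100% = DMSO vehicle wells and lower values mean less viable spheroid.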

Cn1ncnc1[C@H]1c2n[nH]c(=O)c3cc(F)cc(c23)N[C@@H]1c1ccc(F)cc1 + CCN1C(C(=O)NC23CCC(C(=O)O)(CC2)CC3)C(c2cccc(Cl)c2F)C2(C(=O)Nc3cc(Cl)ccc32)C12CCCCC2
> 100 nM: IC50 (second compound 0.00949 µM) | IC50 (second compound 0.03 µM) | IC50 (second compound 0.0949 µM) | IC50 (second compound 0.3 µM) | IC50 (second compound 0.949 µM) | IC50 (second compound 3 µM)
inactive: viability, T/C (second compound 0.00949 µM, first compound 0.000316 µM) 87% | viability, T/C (second compound 0.00949 µM, first compound 0.001 µM) 86.3% | viability, T/C (second compound 0.00949 µM, first compound 0.00316 µM) 103% | viability, T/C (second compound 0.00949 µM, first compound 0.01 µM) 103% | viability, T/C (second compound 0.00949 µM, first compound 0.0316 µM) 84.8% | viability, T/C (second compound 0.00949 µM, first compound 0.1 µM) 98.1% | viability, T/C (second compound 0.03 µM, first compound 0.000316 µM) 119% | viability, T/C (second compound 0.03 µM, first compound 0.001 µM) 82.3% | viability, T/C (second compound 0.03 µM, first compound 0.00316 µM) 72% | viability, T/C (second compound 0.03 µM, first compound 0.01 µM) 91.5% | viability, T/C (second compound 0.03 µM, first compound 0.0316 µM) 74.6% | viability, T/C (second compound 0.03 µM, first compound 0.1 µM) 65.5% | viability, T/C (second compound 0.0949 µM, first compound 0.000316 µM) 137% | viability, T/C (second compound 0.0949 µM, first compound 0.001 µM) 56.1% | viability, T/C (second compound 0.0949 µM, first compound 0.00316 µM) 105% | viability, T/C (second compound 0.0949 µM, first compound 0.01 µM) 82.4% | viability, T/C (second compound 0.0949 µM, first compound 0.0316 µM) 90.6% | viability, T/C (second compound 0.0949 µM, first compound 0.1 µM) 87.5% | viability, T/C (second compound 0.3 µM, first compound 0.000316 µM) 103% | viability, T/C (second compound 0.3 µM, first compound 0.001 µM) 90.7% | viability, T/C (second compound 0.3 µM, first compound 0.00316 µM) 93.7% | viability, T/C (second compound 0.3 µM, first compound 0.01 µM) 97.3% | viability, T/C (second compound 0.3 µM, first compound 0.0316 µM) 75.4% | viability, T/C (second compound 0.3 µM, first compound 0.1 µM) 91.1% | viability, T/C (second compound 0.949 µM, first compound 0.000316 µM) 75.2% | viability, T/C (second compound 0.949 µM, first compound 0.001 µM) 92.3% | viability, T/C (second compound 0.949 µM, first compound 0.00316 µM) 108% | viability, T/C (second compound 0.949 µM, first compound 0.01 µM) 72.3% | viability, T/C (second compound 0.949 µM, first compound 0.0316 µM) 91.9% | viability, T/C (second compound 0.949 µM, first compound 0.1 µM) 95.8% | viability, T/C (second compound 3 µM, first compound 0.000316 µM) 70.2% | viability, T/C (second compound 3 µM, first compound 0.001 µM) 68.8% | viability, T/C (second compound 3 µM, first compound 0.00316 µM) 68.3% | viability, T/C (second compound 3 µM, first compound 0.01 µM) 74.2% | viability, T/C (second compound 3 µM, first compound 0.0316 µM) 107% | viability, T/C (second compound 3 µM, first compound 0.1 µM) 85.1%
